Results taken from patent US20190388377A1, “COMPOSITIONS AND METHODS FOR THE TREATMENT OF LIVER DISEASES AND DISORDERS” (AXCELLA HEALTH INC., priority 2018, published 2019).

Tests used:
CCL18 = CCL18 secretion by ELISA, IL-4-treated primary human M2 macrophages, Example 5; type: cell-based; settings: IL-4 1 ng/ml, 5 mM
Description: On day 0, primary human PBMC derived macrophages were seeded in Dulbecco's Modified Eagle Medium (DMEM) (Gibco) supplemented with penicillin-streptomycin (Hyclone) and 10% heat inactivated fetal bovine serum (HI-FBS) (Atlanta Bio) into 96-well microplates (ThermoFisher) and incubated overnight at 37° C., 5% CO2. On day 1, cells were washed once with DPBS and then treated with: • a. Amino acid free DMEM (US Biologicals) containing a defined custom amino acid concentration based on the mean physiological concentrations in blood based on values published in the Human Metabolome Database (HMDB), with 6 mM glucose, 1 mM sodium pyruvate, 10 mM HEPES, penicillin-streptomycin; or • b. The same medium described above with one amino acid or amino acid combination at various concentrations
On day 2, cells were treated with the same mediums described above supplemented with recombinant human interleukin-4 (1 ng/ml of IL-4; Peprotech). […]
On day 3, the supernatant was collected and immediately frozen in −80° C. freezer. Cells were washed once with DPBS and viability was assessed using the WST-8 Cell Proliferation Cytotoxicity Assay (Dojindo) according to manufacturer-supplied protocol. […] Protein levels in supernatant samples were analyzed by ELISA for CCL18 using commercially available kits (R&D Systems) according to manufacturer-supplied protocols.

Urea = Urea production after 72 h by urea nitrogen (BUN) colorimetric assay, PHH model, Example 2; type: cell-based, human; settings: FFA+TNFα
Description: PHH from two healthy human donors (Lonza, TRL) were seeded on day 0 at density of 6e04 cells in 96 well optical microplates (Thermofisher) in hepatocyte plating media (William's E medium, WEM) (Gibco) supplemented with 10% heat-inactivated FBS (Atlanta Bio), 2 mM Glutamax (Gibco), and 0.2% Primocin (InVivoGen) and incubated for 6 hours at 37° C., 5% CO2. After 6 hours, cells were washed twice and incubated overnight at 37° C., 5% CO2 with Hepatocytes defined medium (Corning) supplemented with 2 mM Glutamax (Gibco), and 1× Penicillin/Streptomycin. On day 1, cells were washed twice and incubated for 24 h in the hepatocyte culture media in the same conditions described above.
On day 2, cells were washed twice with DPBS 1× (Gibco) to remove excess amino acids and maintained in pretreatment media (1×HMDB, a defined custom amino acid concentration based on the mean physiological concentrations in blood, in WEM±supplemental amino acids): • a. Amino acid-free WEM (US Biologicals) supplemented with 11 mM Glucose (Sigma), 0.272 mM Sodium Pyruvate (Sigma), 1× P/S (Gibco) and containing 1×HMDB with no supplemental amino acids; or • b. The same media described above 1×HMDB WEM with supplemental amino acid and amino acid combination treatments at various concentrations. Cells were maintained in the defined media (a. & b.) for 24 hours at 37° C., 5% CO2. The HMDB values are published in the Human Metabolome Database (Wishart D S, Tzur D, Knox C, et al., HMDB: the Human Metabolome Database. Nucleic Acids Res. 2007 January; 35 (Database issue):D521-6. 17202168; which is hereby incorporated by reference in its entirety). Co-Treatment with Free Fatty Acids and Amino Acids Combination
After 24 h pre-treatment, cells maintained in the pretreatment media±supplemental amino acids (section (a. & b.) described above) were exposed to free fatty acids (FFA) at 250 uM with a ratio of 2:1 (Oleate:Palmitate) supplemented with TNF-α (Thermofisher) at 1 ng/ml. Cells were incubated with the FFAs mixture (FFAs+TNF-α)±supplemental amino acids treatments for 24 hours at 37° C., 5% CO2. After 24 hours incubation, media was removed for cytokine analysis and replaced by fresh media containing the same conditions described above (FFAs mixture±supplemental amino acids treatments). Cells were incubated for an additional 48 hours for a total of 72 hours of FFA and TNF-α stimulation. After 72 hours of incubation, media was removed for albumin and urea analysis and the cells were fixed for nuclei and lipid staining.
Urea was measured as an indicator of hepatocytes functionality by urea nitrogen direct assay (StanBio). Cell supernatant was added to the BUN color reagent and BUN acid reagent at 1(color):2(acid) ratio. Incubate the cell supernatant with BUN reagent for 12 min at 100° C. then for 5 min at 4° C. Read absorbance at 520 nm. Data was normalized to the control. Data is reported as median fold change from control, statistical analysis was done using t-Test.

M1 macrophages = experiment: Seahorse XF real-time ATP rate assay in LPS-treated M1 macrophages, Example 6; type: cell-based, human
Description: Primary human PMBC derived macrophages were seeded on day 0 at 2.0E4 cells per well in a Seahorse […] Cell Culture Microplate V3-PS TC-Treated plate (Agilent) coated with 0.1 mg/mL Poly-D-Lysine (Trevigen) in Dulbecco's Modified Eagle Medium (DMEM) (Gibco) supplemented with penicillin-streptomycin (Gibco) and 10% heat inactivated fetal bovine serum (HI-FBS) (Atlanta Bio) and incubated overnight at 37° C., 5% CO2. On day 1, cells were washed once with 150 uL per well DPBS (Gibco) and treated with 100 uL of: • a. Amino acid free DMEM (US Biologicals) containing a defined custom amino acid concentration based on the mean physiological concentrations in blood based on values published in the Human Metabolome Database (HMDB), with 6 mM glucose, 1 mM sodium pyruvate, 10 mM HEPES (Sigma), and penicillin-streptomycin (Gibco); or • b. The same media described above with supplemental amino acid and amino acid combination treatments at various concentrations. […] Control wells were treated with 0.15 ng/mL LPS, or phosphate buffered saline (PBS). On day 3, the supernatant was collected and immediately frozen in a -80° C. freezer. Cells were analyzed for total ATP production rate, glycolytic ATP production rate, and mitochondrial ATP production rate using a commercially available kit (Agilent Seahorse XF Real-Time ATP Rate Assay Kit) according to manufacturer-supplied protocol on a Seahorse XFe instrument. A custom assay medium (amino acid free DMEM/F12 without phenol red or sodium bicarbonate (US Biologicals) containing a defined custom amino acid concentration based on the mean physiological concentrations in blood based on values published in the Human Metabolome Database (HMDB), with 10 mM XF glucose (Agilent), 1 mM XF pyruvate (Agilent), and 5 mM HEPES (Sigma) was used. Buffer factor for the custom assay medium was determined according to manufacturer-supplied protocol. Following the assay, cells were washed twice with PBS and fixed with 4% paraformaldehyde.

[1] = 30× LIRQNacSCar (7.5 mM Nac and Car) or 7.5 mM Nac vs LPS vehicle control

Compound: CC(=O)N[C@@H](CS)C(=O)O [Nac, N-acetylcysteine]
- CCL18 Median Fold Change from Vehicle (log2) (CCL18): 0.387 log2
- urea production (in words) (Urea; hepatocyte donor 1): No changes in urea production
- urea production (in words) (Urea; hepatocyte donor 2): slightly induce urea production
- glycolytic ATP production rate (in words) (M1 macrophages; [1]): significantly decreased glycolytic, mitochondrial, and total ATP rate measurements
- mitochondrial ATP production rate (in words) (M1 macrophages; [1]): significantly decreased glycolytic, mitochondrial, and total ATP rate measurements
- total ATP rate (in words) (M1 macrophages; [1]): significantly decreased glycolytic, mitochondrial, and total ATP rate measurements
- Glycolytic ATP Rate, Median Fold Change from Vehicle (Log2) (M1 macrophages; LPS 0.15 ng/mL, 7.5 mM): −0.461 Log2
- Mitochondrial ATP Rate, Median Fold Change from Vehicle (Log2) (M1 macrophages; LPS 0.15 ng/mL, 7.5 mM): −0.196 Log2
- Total ATP Rate, Median Fold Change from Vehicle (Log2) (M1 macrophages; LPS 0.15 ng/mL, 7.5 mM): −0.2744 Log2
